From patent US9441017B2, “Water-soluble polypeptides comprised of repeat modules, method for preparing the same and method for a target-specific polypeptide and analysis of biological activity thereof” (priority 2011, dated 2016)
“Also recorded” adds a separate entry of the source.

Tests used:
[1] = reported, Akashi et al. 2003; read-out: binding affinity (Kd) for LPS; cited from earlier work
[2] = system: LPS signal transduction in differentiated THP-1 cells; experiment: TNF-α secretion of LPS-treated, PMA-differentiated THP-1 cells by ELISA; format: cell-based, human; settings: differentiated THP-1, 20 ng/ml LPS, 6 hours
Protocol: First, THP-1 monocyte (TIB-202TM, ATCC) was cultured in RPMI containing 10% FBS (Fetal Bovine Serum) and 50 µM 2-mercaptoethanol at 37° C. and 5% CO2. When cell density reached 90%, they were washed with a DPBS buffer solution (pH 7.4). Then, to increase the sensitivity to LPS, the cells were suspended in a medium supplemented with 200 nM PMA (phorbol 12-myristate-13-acetate), and aliquoted to a 96-well plate in a density of 2.5×10^4/well, followed by incubation for 72 hours at 37° C. and 5% CO2 for differentiation.
Prior to the experiment, 10 μg/ml of InlB-VLR and MD-2-added RPMI medium, and 10 μg/ml of MD-2 and 10 μg/ml of IVLR-added medium, 10 μg/ml of TV3-added medium, and 10 μg/ml of TV-3 and MD-2-added medium as control groups were prepared and left at 37° C. for 1 hour. Then, THP-1 differentiated into macrophage by PMA was washed with DPBS buffer solution (pH 7.4) three times, and the sample-containing RPMI media were treated with 20 ng/ml of LPS and THP-1, followed by incubation at 37° C. and 5% CO2 for 6 hours. After 6 hours, a predetermined amount of culture was taken from each well, and diluted 4-8 fold using DPBS buffer solution (pH 7.4), followed by ELISA (Enzyme-Linked Immunosorbent Assays) for the secreted TNF-α.
Monocyte THP-1 (TIB-202TM, ATCC) was cultured in RPMI media supplemented with 10% Fetal Bovine Serum (FBS) and 50 µM of 2-mercaptoethanol at 37° C. and 5% CO2. When the cells reached 90% confluence, they were washed with PBS buffer solution (pH 7.4). In order to increase LPS sensitivity, the cells were suspended in RPMI media containing 200 nM of PMA (phorbol 12-myristate-13-acetate), and plated in a 96-well plate at a density of 2.5×10^4 cells/well, and differentiated at 37° C. and 5% CO2 for 72 hours.
Prior to the experiment, the LPS inhibitor polymyxin B was diluted in RPMI at a concentration of 1-100 μg/ml, and incubated at 37° C. for 1 hour. […] The results were calculated from a standard curve of TNF-α.

[3] = system: TLR4/MD-2 receptor activation by LPS; experiment: NF-κB firefly/Renilla luciferase reporter assay in HEK293/hTLR4A-MD2-CD14 cells; format: cell-based, human; settings: HEK293/hTLR4A-MD2-CD14, 10 ng/ml LPS, 6 hours
Protocol: In order to monitor activation of TLR4-MD-2 receptor by LPS, an HEK293/hTLR4A-MD2-CD14 cell line (Invivogen) stably expressing TLR4 and MD2, CD14 genes, prepared by introduction of the genes into HEK293 cell, was used. The HEK293/hTLR4A-MD2-CD14 cell line was subcultured in an RPMI medium (Invitrogen) supplemented with 10% Fetal Bovine Serum (FBS) in an incubator at 37° C. and 5% CO2, and then used for the experiment.
In the present invention, the LPS inhibitor, polymyxin B (Invivogen) and the LPS antagonist, LPS-RS (Invivogen) were diluted in RPMI media at a concentration of 0.01-100 μg/ml, and reacted with 10 ng/ml of LPS at 37° C. for 1 hour. […]
First, the media were removed from the 24-well plate, and the plate was washed with a PBS buffer solution twice, and then 200 μl of passive lysis buffer (PLB) was added to each well for cell lysis. After 30 minutes, 20 μl of cell lysate was transferred to a new 96 well-plate, and then 100 μl of LAR II reagent containing a substrate of firefly luciferase was added to measure luminescence using a VICTOR X Multilabel Plate Reader (PerkinElmer) for 0.5 seconds. After measurement of firefly luciferase luminescence, 100 μl of STOP & GLO reagent containing a substrate of Renilla luciferase was added to measure Renilla luciferase luminescence for 0.5 second. […]

Substance	Kd [1] [nM]	inhibitory effect on LPS signal transduction (TNF-α secretion) [2]	inhibitory effect on LPS signal transduction (relative firefly luciferase activity) [3]
TLR4/MD-2 complex: complex of Toll-like receptor 4 with MD-2	3	–	–
polymyxin B	–	reduction in TNF-α secretion; also recorded: reduction in LPS signal transduction	relatively reduced luciferase activity; also recorded: relative reduction of firefly luciferase activity
MD-2: Myeloid differentiation protein-2, also called lymphocyte antigen 96, a glycoprotein that binds LPS	65	weak inhibitory effect	–
sTLR4: soluble extracellular domain of cell membrane receptor TLR4	–	no LPS blocking activity	no LPS blocking activity
